Measured values taken from ChEMBL document CHEMBL5579894, “Antimicrobial Dihydroflavonols and Isoflavans Isolated from the Root Bark of Dalbergia gloveri” (2024).
Values after ≈ are worked out from the molar mass of the structure shown.

Assays:
Type in all cases: functional
Staphylococcus aureus = experiment: Antibacterial activity against Staphylococcus aureus assessed as reduction in microbial growth incubated for 24 hrs by microdilution method
Escherichia coli = experiment: Antibacterial activity against Escherichia coli assessed as reduction in microbial growth incubated for 24 hrs by microdilution method
Candida albicans = experiment: Antifungal activity against Candida albicans assessed as reduction in fungal growth incubated for 24 hrs by microdilution method

| SMILES | MIC (Staphylococcus aureus) | MIC (Escherichia coli) | MIC (Candida albicans) |
| --- | --- | --- | --- |
| CC(C)=CCC[C@]1(C)C=Cc2cc([C@H]3Oc4cc(O)ccc4C(=O)[C@@H]3O)cc(O)c2O1 | 9.2 µM | 296 µM | 74.1 µM (≈ 31.3 µg/mL) |
| CCCCCCCCN=c1ccn(CCCCCCCCCCn2ccc(=NCCCCCCCC)cc2)cc1 [OCTENIDINE] | 0.5 µM | 0.5 µM | 0.5 µM (≈ 0.275 µg/mL) |
| O=C(/C=C/c1ccc(O)cc1)c1ccc(O)cc1O [ISOLIQUIRITIGENIN] | 488 µM | > 1000 µM | > 1000 µM |
| CC(=O)O[C@H]1CC[C@]2(C)[C@H]3CC=C4[C@@H]5CC(C)(C)CC[C@]5(C(=O)O)CC[C@@]4(C)[C@]3(C)CC[C@H]2C1(C)C [ACETYL OLEANOLIC ACID] | 251 µM | > 1000 µM | 251 µM (≈ 125 µg/mL) |
| O=C(CC(O)c1ccc(O)cc1)c1ccc(O)cc1O (configuration not stated) | 14.2 µM | > 1000 µM | 56.9 µM (≈ 15.6 µg/mL) |
| CC(C)=CCC/C(C)=C/Cc1c(O)ccc2c(=O)c(O)c(-c3ccc(O)c(O)c3)oc12 | > 1000 µM | > 1000 µM | > 1000 µM |
| COc1ccc(C2COc3c(ccc4c3C=CC(C)(CCC=C(C)C)O4)C2)c(O)c1O (configuration not stated) | 36.9 µM | 296 µM | 36.9 µM (≈ 15.6 µg/mL) |
| CC(C)=CCCC1(C)C=Cc2c(ccc(C(=O)/C=C/c3ccc(O)cc3)c2O)O1 (configuration not stated) [LESPEOL] | 40 µM | 64 µM | 40 µM (≈ 15.6 µg/mL) |
| CC(C)=CCC/C(C)=C/Cc1cc([C@H]2Oc3cc(O)ccc3C(=O)[C@@H]2O)cc(O)c1O | 36.7 µM | 294 µM | 73.7 µM (≈ 31.3 µg/mL) |
| C=C(CO)[C@H]1Cc2c(ccc3c2O[C@@H]2COc4cc(OC)c(OC)cc4[C@]2(O)C3=O)O1 [DABINOL] | 293 µM | > 1000 µM | 147 µM (≈ 62.5 µg/mL) |
| CC(C)=CCC[C@]1(C)C=Cc2c(ccc3c2O[C@H](c2ccc(O)c(O)c2)[C@@H](O)C3=O)O1 | 36.9 µM | > 1000 µM | 74.1 µM (≈ 31.3 µg/mL) |
| COc1ccc([C@@H]2COc3c(ccc(O)c3C/C=C(\C)CCC=C(C)C)C2)c(O)c1O | 36.7 µM | 294 µM | 73.7 µM (≈ 31.3 µg/mL) |
| C=C[C@@](C)(CCC=C(C)C)c1cc([C@@H]2COc3cc(O)ccc3C2)c(O)c(O)c1OC | 18.4 µM | > 1000 µM | 73.7 µM (≈ 31.3 µg/mL) |
| C=C(CO)[C@H]1Cc2c(ccc3c(=O)c4c(oc23)COc2cc(OC)c(OC)cc2-4)O1 | 612 µM | > 1000 µM | > 1000 µM |
